# “Also recorded” adds a separate entry of the source.
# Tests used:
# [1] = tested on: murine peritoneal mast cells; experiment: Mast cell degranulation by flow cytometry (surface Lamp1 and avidin binding) after compound 48/80; type: cell-based; conditions: for degranulation of PCMC in response to MrgprB2: in vitro, dose-dependent manner; for mast cell degranulation (mast cell activation): 48 hours incubation, compound 48/80 20 ug/ml 20 minutes, FIG. 1B
# Method: Primary mast cell cultures derived from murine peritoneal mast cells were incubated for 48 hours with kainic acid (0.1, 1.0, 10 and 100 uM), glutamate (6 mM) or vehicle control. Cultures were then exposed to the synthetic MrgprB2 ligand, compound 48/80, at 20 ug/ml for 20 minutes. The extent of mast cell degranulation was determined based on surface expression of Lamp1 protein and avidin binding using flow cytometry gated on CD117+ FcεR+ mast cells. Representative flow plots from unstimulated cells (control) and cells stimulated with compound 48/80 are shown (FIG. 1A). […] A similar set of experiments were performed using mast cells incubated with the selective GluK2 agonist, SYM2081 at 1600 nM concentration (FIGS. 1C and 1D). […] Each symbol represents data from a single well of mast cells.
# [2] = tested on: murine peritoneal mast cells; experiment: β-hexosaminidase release from mast cells; type: cell-based; conditions: preincubated with SYM2081 at 100 nM and 1600 nM; FIG. 1F
# [3] = tested on: dermal mast cells; experiment: Evans Blue dye edema after intradermal compound 48/80 in mice; type: in vivo, C57BL/6 mice; conditions: compound 48/80 challenge, 20 minutes
# Method: Cohorts of 7-9-week-old female C57BL/6 mice were given 20 ul intradermal flank injections of 1600 nM SYM2081 or control PBS twice a day for 2 days. Evans Blue dye was introduced by intravenous injection to allow for quantification of edema followed by intradermal injection of control PBS or compound 48/80 (20 ul 10 ug/ml). The amount of Evans blue dye released into the skin which quantifies edema and is an indirect measure of mast cell degranulation was measured 20 minutes later (FIG. 2A). […] The percentage of degranulated mast cells was also quantified by direct microscopic visualization of skin samples stained with toluidine blue (FIG. 2B). […] Mice were then challenged by application of 0.5% croton oil, an irritant, on 1 ear and the degree of ear swelling which is reflective of the extent of irritant dermatitis was measured (FIG. 2D). […]
# Cohorts of 7-9-week-old female C57BL/6 mice were treated with 5.0% SYM2081 formulated into a light base or vehicle alone on the flank twice daily for 2 days. Evans Blue dye was introduced by intravenous injection to allow for quantification of edema followed by intradermal injection of control PBS or compound 48/80 (20 ul 10 ug/ml). The amount of Evans blue dye released into the skin which quantifies edema and is an indirect measure of mast cell degranulation was measured 20 minutes later (FIG. 3A). […]
# [4] = tested on: mast cells in whole human skin explants; experiment: Whole human skin explants, degranulated mast cells by toluidine blue after compound 48/80; type: cell-based; conditions: 1600 nM for 48 hours; compound 48/80 240 ug/ml 20 minutes; FIG. 2C
# Method: (§1) Cohorts of 7-9-week-old female C57BL/6 mice were given 20 ul intradermal flank injections of 1600 nM SYM2081 or control PBS twice a day for 2 days. Evans Blue dye was introduced by intravenous injection to allow for quantification of edema followed by intradermal injection of control PBS or compound 48/80 (20 ul 10 ug/ml). The amount of Evans blue dye released into the skin which quantifies edema and is an indirect measure of mast cell degranulation was measured 20 minutes later (FIG. 2A). […] The percentage of degranulated mast cells was also quantified by direct microscopic visualization of skin samples stained with toluidine blue (FIG. 2B). Whole human skin explants were cultured in control PBS or 1600 nM SYM2081 for 48 hours. Sample were exposed to compound 48/80 (240 ug/ml) for 20 minutes followed by direct microscopic visualization of skin samples stained with toluidine blue (FIG. 2C). […] Finally, C57BL/6 mice were treated with intradermal injection of control PBS or SYM2081 for 2 days as above. Mice were then challenged by application of 0.5% croton oil, an irritant, on 1 ear and the degree of ear swelling which is reflective of the extent of irritant dermatitis was measured (FIG. 2D). […] Each symbol represents data from an individual animal.
# [5] = tested on: irritant dermatitis; experiment: Croton oil-induced irritant dermatitis, ear swelling; type: in vivo, C57BL/6 mice; conditions: intradermal SYM2081 for 2 days; 0.5% croton oil on 1 ear; FIG. 2D
# Method: as §1
# [6] = tested on: contact hypersensitivity; experiment: DNFB contact hypersensitivity, ear thickness; type: in vivo, mice; conditions: topical SYM2081 on shaved abdomen twice daily for 2 days; 0.5% DNFB sensitization, 0.25% DNFB challenge; 7 days; FIG. 3B
SMILES,effective concentration (suppression of mast cells) ([1]; FIG. 1E),"IC50 ([1]; Mus musculus, Mast cell, read-out: IC50 of suppression of mast cells (degranulation))",degranulation of PCMC in response to MrgprB2 [1],release of β-hexosaminidase [2],"edema (Evans blue dye released into the skin), indirect measure of mast cell degranulation ([3]; 20 ul intradermal 1600 nM SYM2081 twice a day for 2 days, FIG. 2A)","edema (Evans blue dye released into the skin), indirect measure of mast cell degranulation ([3]; topical 5.0% SYM2081 in a light base on flank twice daily for 2 days, FIG. 3A)",percentage of degranulated mast cells [4],ear swelling (irritant dermatitis) [5],increased ear thickness (inflammation) in response to DNFB [6],mast cell degranulation (mast cell activation) ([1]; glutamate 6 mM),"mast cell degranulation (mast cell activation) ([1]; kainic acid 0.1, 1.0, 10 and 100 uM)"
"C[C@H](C[C@H](N)C(=O)O)C(=O)O [SYM2081, (2S,4R)-4-methylglutamic acid]",at least 0.1 nM,2.27 nM,suppressed,decreased,effective to reduce mast cell degranulation; also recorded: suppressed; also recorded: significant reduction in edema,effective to reduce mast cell degranulation; also recorded: significant reduction in edema,reduced percentage of degranulated mast cells,attenuated; also recorded: reduced ear swelling,reduced inflammation,,
N[C@@H](CCC(=O)O)C(=O)O [glutamate],,,suppressed,,,,,,,suppress mast cell activation,
C=C(C)[C@H]1CN[C@H](C(=O)O)[C@H]1CC(=O)O [kainic acid],,,suppressed,,,,,,,,suppress mast cell activation
